From the supplement of paper PMC10307832 come the findings set out here.

What all share (test): relative viability (nuclei count vs DMSO), 5 days (fraction); higher = more cells survive
Compound in test [1]: C1CSC2=C(C(=O)N1)SC3=C2C=C(C=C3)O [kb NB 142-70] + CS(=O)(=O)N1CCN(Cc2cc3nc(-c4cccc5[nH]ncc45)nc(N4CCOCC4)c3s2)CC1 [Pictilisib] (partner 1 µM)
The procedure, abridged: (§1)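 Relative viability equals treated-well nuclei counts divided by vehicle-well nuclei counts. Counts came from 4× images of lung cancer cell lines grown in 1536-well plates for 5 days after pin-tool dosing on the day after seeding. Dosing used one drug alone or a fixed anchor-drug dose plus five library-drug doses (not always all listed) in √10 steps, and values are medians of duplicate plates.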

Compound in test [2]: C1CSC2=C(C(=O)N1)SC3=C2C=C(C=C3)O [kb NB 142-70] + CC1(C)CCC(c2ccc(Cl)cc2)=C(CN2CCN(c3ccc(C(=O)NS(=O)(=O)c4ccc(N[C@H](CCN5CCOCC5)CSc5ccccc5)c(S(=O)(=O)C(F)(F)F)c4)cc3)CC2)C1 [Navitoclax] (partner 0.5 µM)
The procedure, abridged:
as §1

Compound in test [3]: NCC(=O)Nc1ccc(-n2nc(C(F)(F)F)cc2-c2ccc3c(ccc4ccccc43)c2)cc1 + Cc1nc(Nc2ncc(C(=O)Nc3c(C)cccc3Cl)s2)cc(N2CCN(CCO)CC2)n1 [Dasatinib] (partner 0.075 µM)
The method, boiled down: as §1

Compound in test [4]: NCC(=O)Nc1ccc(-n2nc(C(F)(F)F)cc2-c2ccc3c(ccc4ccccc43)c2)cc1 + C[C@@H](Oc1cc(-c2cnn(C3CCNCC3)c2)cnc1N)c1c(Cl)ccc(F)c1Cl [Crizotinib] (partner 1 µM)
The procedure, abridged:
as §1

Compound in the test “kb NB 142-70 + Olaparib”: C1CSC2=C(C(=O)N1)SC3=C2C=C(C=C3)O [kb NB 142-70] + O=C(c1cc(Cc2n[nH]c(=O)c3ccccc23)ccc1F)N1CCN(C(=O)C2CC2)CC1 [Olaparib] (partner 8 µM)
The procedure, abridged: as §1

On to UMC-11, for which the relative viability in test [1] (first compound 0.1 µM) was determined as 0.83; in test [1] (first compound 1 µM), 0.719; in test [1] (first compound 3.162 µM), 0.44; in test [2] (first compound 0.1 µM), 0.293; in test [2] (first compound 1 µM), 0.267; in test [2] (first compound 3.162 µM), 0.184. Also, the relative viability was determined as 0.426 in test [3] (first compound 0.02 µM); 0.416 in test [3] (first compound 0.06325 µM); 0.466 in test [3] (first compound 0.2 µM); 0.432 in test [3] (first compound 0.6325 µM); 0.42 in test [3] (first compound 2 µM); 0.728 in test [4] (first compound 0.02 µM). The relative viability in test [4] (first compound 0.06325 µM) turned out to be 0.638; in test [4] (first compound 0.2 µM), 0.622; in test [4] (first compound 0.6325 µM), 0.604; in test [4] (first compound 2 µM) it was 0.567; with kb NB 142-70 + Olaparib (first compound 0.1 µM), 0.309; in the test with kb NB 142-70 + Olaparib (first compound 1 µM), 0.315. The relative viability with kb NB 142-70 + Olaparib (first compound 3.162 µM) was 0.199.
